These results are taken from PubChem BioAssay (NCI).

“And” between values parts separate entries of the source, which are not always exact repeats. Identical values can stand only once.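 Growth conditions: 96-well plates. Treatment: test compound, 48 hours, 5 concentrations. Analysis: linear interpolation between bracketing concentrations; unreached endpoints set to highest concentration. The concentration for 50% growth inhibition is given as GI50. TGI denotes the concentration required for complete inhibition of growth.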

Some test systems named below: NCI-H226 lung; HOP-92 NSCLC; IGROV1 ovarian; A549 NSCLC; SF-295 CNS; MDA-MB-231 breast; ACHN renal; RXF 393 renal; SN12C renal; DU-145 prostate.
Common to all, as to experiment: NCI anticancer screen, dose series, 48 h

As to `N#CC1=C(N)NC(=O)C(C#N)C12Nc1ccccc1S2` (stereo not given), the GI50 with NCI-H226 lung is 41.3 µM; in the assay with HOP-92 NSCLC, 74 µM; with IGROV1 ovarian, 18 µM; with A549 NSCLC, greater than 100 µM; in the assay with SF-295 CNS it was 50.6 µM; in the assay with MDA-MB-231 breast it was 29.8 µM. The GI50 is greater than 100 µM in the assay with ACHN renal, 20.4 µM in the assay on RXF 393 renal, greater than 100 µM in the assay on SN12C renal and greater than 100 µM with DU-145 prostate. Moreover, the TGI in the assay with NCI-H226 lung is greater than 100 µM; in the assay with HOP-92 NSCLC, greater than 100 µM; with IGROV1 ovarian it was 88.4 µM; with A549 NSCLC, greater than 100 µM; with SF-295 CNS, greater than 100 µM; with MDA-MB-231 breast, greater than 100 µM. Besides, the TGI in the assay on ACHN renal, in the assay with RXF 393 renal, with SN12C renal and in the assay with DU-145 prostate was greater than 100 µM in each case.

In the case of `O=C(O)CCC(O)=C1S(=O)(=O)OCCOS1(=O)=O`, the TGI in the assay with NCI-H226 lung, in the assay on HOP-92 NSCLC, in the assay with IGROV1 ovarian, with A549 NSCLC, in the assay with SF-295 CNS and in the assay on MDA-MB-231 breast was greater than 100 µM each time. The TGI in the assay with ACHN renal, in the assay on RXF 393 renal, in the assay on SN12C renal and in the assay with DU-145 prostate was greater than 100 µM in each case.

`CC(C)(C)OC(=O)NCCCCCCCCCn1c2c(c3ccccc3c1=O)C(=O)c1ccccc1-2`: the GI50 in the assay with NCI-H226 lung was 41 µM; in the assay with HOP-92 NSCLC it was 14.6 µM; in the assay with IGROV1 ovarian it was 36.1 µM; with A549 NSCLC, greater than 100 µM; with SF-295 CNS it was 24.8 µM; with MDA-MB-231 breast, 31.7 µM. Besides, the GI50 in the assay with ACHN renal is 27 µM; in the assay on RXF 393 renal, 20.5 µM; with SN12C renal, 76.8 µM; in the assay on DU-145 prostate it was greater than 100 µM. The TGI was greater than 100 µM with NCI-H226 lung; 41.6 µM with HOP-92 NSCLC; greater than 100 µM in the assay with IGROV1 ovarian; greater than 100 µM with A549 NSCLC; greater than 100 µM with SF-295 CNS; greater than 100 µM in the assay with MDA-MB-231 breast. In addition, the TGI with ACHN renal, with RXF 393 renal, with SN12C renal and in the assay with DU-145 prostate was greater than 100 µM throughout.

Take `COc1ccc2nc3cc(Cl)ccc3c(Nc3ccccc3-c3ccccc3Nc3c4ccc(Cl)cc4nc4ccc(OC)cc34)c2c1`: the TGI in the assay with NCI-H226 lung is greater than 73.4 µM; with HOP-92 NSCLC, greater than 82.5 µM; in the assay with IGROV1 ovarian it was greater than 71.1 µM; with A549 NSCLC, greater than 100 µM; with SF-295 CNS it was greater than 76.2 µM; with MDA-MB-231 breast, greater than 100 µM. Further, the TGI with ACHN renal was greater than 59.2 µM; with RXF 393 renal it was greater than 53.5 µM; with SN12C renal, greater than 84.4 µM; with DU-145 prostate, greater than 100 µM.

Regarding `Nc1c(C(=O)c2cccc(-c3cccnc3)c2)cnn1-c1ccc(F)cc1`, the GI50 was greater than 16.1 µM in the assay on NCI-H226 lung; greater than 8.11 µM in the assay on HOP-92 NSCLC; greater than 25 µM in the assay with IGROV1 ovarian; greater than 25 µM in the assay with A549 NSCLC; greater than 25 µM in the assay on SF-295 CNS; greater than 25 µM in the assay on MDA-MB-231 breast. Further, the GI50 was greater than 25 µM with ACHN renal, greater than 18.3 µM in the assay with RXF 393 renal, greater than 25 µM with SN12C renal and greater than 25 µM in the assay on DU-145 prostate. In addition, the TGI in the assay on NCI-H226 lung, with HOP-92 NSCLC, with IGROV1 ovarian, in the assay on A549 NSCLC, in the assay on SF-295 CNS and with MDA-MB-231 breast was greater than 25 µM throughout. The TGI with ACHN renal, in the assay on RXF 393 renal, in the assay on SN12C renal and in the assay with DU-145 prostate was greater than 25 µM in each case.

For the molecule `COc1cc(C[C@H]2COC(=O)[C@]2(O)Cc2ccc(OCc3ccccc3)c(OC)c2)ccc1OCc1ccccc1`, the GI50 was 33.7 µM in the assay on NCI-H226 lung; greater than 100 µM with HOP-92 NSCLC; greater than 100 µM in the assay on IGROV1 ovarian; 7.13 µM with A549 NSCLC; 18.9 µM in the assay with SF-295 CNS; greater than 100 µM in the assay with MDA-MB-231 breast. Also, the GI50 was 26.1 µM in the assay with ACHN renal, 40.3 µM in the assay with RXF 393 renal, 12.5 µM in the assay with SN12C renal and 85.9 µM with DU-145 prostate. Besides, the TGI with NCI-H226 lung, in the assay on HOP-92 NSCLC, in the assay with IGROV1 ovarian, in the assay on A549 NSCLC, in the assay with SF-295 CNS and in the assay on MDA-MB-231 breast was greater than 100 µM in each case. The TGI in the assay on ACHN renal, in the assay on RXF 393 renal, with SN12C renal and in the assay with DU-145 prostate was greater than 100 µM throughout.

For the molecule `CC(=O)CC[N+](C)(C)C`, the TGI was 88.2 µM in the assay with NCI-H226 lung; 22.7 µM in the assay with HOP-92 NSCLC; 53.4 µM with IGROV1 ovarian; greater than 94.6 µM in the assay on A549 NSCLC; greater than 100 µM in the assay on SF-295 CNS; 38.6 µM in the assay on MDA-MB-231 breast. The TGI is 26.5 µM with ACHN renal, 20.1 µM in the assay on RXF 393 renal, 53.6 µM with SN12C renal and greater than 79 µM in the assay with DU-145 prostate.

For `CCC/C=C/C=C/C(=O)OC1/C(=C/C(=O)OC)CC2CC(C(C)O)OC(=O)CC(O)CC3CC(OC(C)=O)C(C)(C)C(O)(CC4C/C(=C/C(=O)OC)CC(/C=C/C(C)(C)C1(O)O2)O4)O3` (stereo not given), the GI50 is > 10.9 µM and 9.74 µM in the assay on NCI-H226 lung; 7.79 µM and 5.61 µM and 4.84 µM in the assay on HOP-92 NSCLC; > 10.9 µM and 5.09 µM and > 12.5 µM in the assay with IGROV1 ovarian; 2.58 µM and 5.95 µM and > 12.5 µM in the assay on A549 NSCLC; > 10.9 µM and 6.77 µM and > 12.5 µM in the assay on SF-295 CNS; greater than 12.5 µM in the assay on MDA-MB-231 breast. Moreover, the GI50 was greater than 12.5 µM in the assay with ACHN renal; 10.6 µM and 5.25 µM and > 12.5 µM in the assay on RXF 393 renal; > 10.9 µM and 7.93 µM and > 12.5 µM with SN12C renal; greater than 11 µM in the assay with DU-145 prostate. Also, the TGI was > 10.9 µM and 11 µM and > 12.5 µM in the assay on NCI-H226 lung; 10.9 µM and 11 µM and > 12.5 µM in the assay with HOP-92 NSCLC; > 10.9 µM and 6.06 µM and > 12.5 µM in the assay with IGROV1 ovarian; 8.17 µM and 11 µM and > 12.5 µM in the assay with A549 NSCLC; > 10.9 µM and 11 µM and > 12.5 µM in the assay with SF-295 CNS; 11 µM and > 12.5 µM in the assay with MDA-MB-231 breast. For the same molecule, the TGI in the assay with ACHN renal was 11 µM and > 12.5 µM; in the assay on RXF 393 renal it was 10.9 µM and > 12.5 µM; with SN12C renal, > 10.9 µM and 11 µM and > 12.5 µM; in the assay on DU-145 prostate, greater than 12.5 µM.
